Patent US11117932B2, “Peptides for specific inhibition of Jag 1-Notch 1 pathway” (The Hong Kong Polytechnic University, priority 2018, dated 2021)
Like-named read-outs stand apart in the source and are kept apart here. Blank lines part the entries; values can stand above or below the compound they belong to. Residues, ends and D or L forms follow the SMILES beside them.

What was measured:
NICD1 [1] = assay: NICD1 formation in S1-M1-80; assay type: cell-based, human; conditions: 10 μM
Description: (§1) The cleaved Notch1 (Val1744) (D3B8) rabbit monoclonal antibody (CST) and Notch2 (Cleaved Ala1734) rabbit monoclonal antibody at 1:1000 dilution were used to detect human Notch intracellular domain (NICD1) and Notch2 intracellular domain (NICD2), respectively. β-actin was detected using a mouse monoclonal antibody (Santa Cruz Biotechnology) at 1:3000 dilution.

DLL1-Notch1 signalling = assay: Co-culture Notch luciferase reporter assay, DLL1-induced; assay type: cell-based, human; conditions: DAPT 50 μM
Description: (§2) Specificity of N1 (SEQ ID NO: 10) peptide in inhibiting different Notch ligand-induced Notch signaling was investigated using in vitro co-culture assay. HEK293T or CHO cells expressing Notch ligand (either Jag1, DLL1 or DLL4) are co-cultured with Notch1- or Notch2-expressing cells. Notch1 and Notch2 signalling can be measured by either luciferase reporter assay or by the formation of NICD1 and NICD2. […] Half inhibition is reached at between 50 to 100 μM. […] This contrasts with DAPT which affects all the above interactions.
(§3) HEK-293T-Jagged-1 cells were seeded in 24-well plates in triplicate per sample group, and human HCT-116 cells were seeded in one 60 mm dish. Cells were allowed to settle, and were transfected the following day after the medium was changed to be antibiotic free. HCT-116 cells were transfected with 12×CSL-Luc and Renilla-Luc, using Lipofectamine® 3000 (Invitrogen™), according to the manufacturer's instructions. After 24 hours, HCT-116 cells were scraped and 2.5×10^4 cells in 1 mL complete medium per well were added to both 24-well plates. Peptides were treated to cells with the desired concentrations. N—[N-(3,5-difluorophenacetyl)-L-alanyl]-S-phenylglycine t-butyl ester (DAPT) was used as positive control. Cells were co-cultured for 12 hours before measure the luciferase activity. After incubation, cells were lysed with luciferase lysis buffer. Notch activity in cells expressing the 12×CSL-Luc reporter construct was measured by a luciferase assay using Dual-Luciferase® Reporter Assay System (Promega).

Jag1-induced NICD1 = assay: Co-culture assay, Jag1-induced NICD1 level; assay type: cell-based, human; conditions: N1 at 50 μM
Description: as §2, §1

S1-M1-80 cells [2] = assay: cells; assay type: cell-based, human
Description: (§4) HCT-116, HCT-15, S1-M1-80, S1, L929, HEK293T-Jagged-1 were seeded in each well of a 96-well plate with a series of concentrations (a serial dilution from 1000μM to 0.5 μM) of peptides or drugs including DAPT, Topotecan at 37° C. with 5% CO2 in a humidified incubator for 3 days. Percentage of survival was determined by MTS assay as described.

S1 = assay: cells; assay type: cell-based, human
Description: as §4

in vitro = assay type: cell-based; conditions: mouse
Description: as §4

HEK-293T-Jagged-1 cells = assay type: cell-based, human
Description: as §4

DLL4-Notch1 signalling = assay: Co-culture Notch luciferase reporter assay, DLL4-induced; assay type: cell-based, human; conditions: DAPT 50 μM
Description: as §2, §3

Jag1-Notch1 signalling = assay: Co-culture Notch luciferase reporter assay, Jag1-induced; assay type: cell-based, human; conditions: for inhibition of Jag1-induced Notch1 signalling, dose response: reporter assay, DAPT 50 μM
Description: Jag1-Notch interaction is measured using a co-culture assay with one cell line expressing the Notch ligand Jagged1 (Jag1) and a second expressing Notch (either Notch1 or Notch2). A firefly luciferase reporter plasmid with 12 upstream CBF-1 binding site was transfected into signalling-receiving cells to report on Notch signalling (FIG. 1D). Peptides were tested for their activity in inhibiting Jag1-induced Notch signalling. Complete inhibition is equivalent to the background signal seen without induction (−Jag1). […] N1 (SEQ ID NO: 10) is a 15-mer derived from the EGF-like repeat 12 of Notch1 (C467-G481). This is consistent with the structural information that EGF-like repeat 12 of Notch1 is near the MNNL domain of Jag1 (FIGS. 1B and C).
as §2, §3

S1-M1-80 cells [3] = assay: Clonogenicity assay, S1-M1-80; assay type: cell-based, human; conditions: for colony formation, combination with TPT: S1-M1-80, combined with 1 μM of TPT (DAPT 1 μM)
Description: The procedure for colony formation assay consists of following steps. An appropriate number of cells per well were seeded on a 6-well plate in duplicate. The number of cells for seeding should be related to the aggressiveness of the treatment. The cells were incubated for 12 hours in a CO2 incubator at 37° C. and allow cells to attach to the plate. The cells were treated with peptides or (DAPT) to required concentrations. The cells were incubated in a in a CO2 incubator at 37° C. for about 10 days until cells in control well have formed colonies which are of a substantially good size (the minimum score is 100 cells per colony). After the incubation, the medium was removed and cells were rinsed with 5 ml 1×PBS (phosphate buffered saline. pH 7.2). The cells were then fixed with 1 ml methanol at room temperature for 10 min. After fixation, the cells were stained with 0.5% crystal violet solution and incubated at room temperature for 1 h. After staining, the plates were immersed in deionized water to rinse off crystal violet and air-dried at room temperature for overnight. The dry plates were pictured with scanner. The number of colonies in each well was counted by cell counter software.

NICD1 [4] = assay: NICD1 formation in HCT-116; assay type: cell-based, human; conditions: peptides 100 μM
Description: (§5) This panel of peptides was also tested for their cytotoxic activities against two human colorectal cell lines (HCT-116 and HCT-15). At a concentration of 100 μM, N1 (SEQ ID NO: 10) is the only peptide that is cytotoxic to HCT-116 and HCT-15 cells (FIGS. 2B and C). Notch signaling results in the release of NICD1 from the membrane-bound Notch receptor.
as §1

DLL1-induced NICD1 = assay: Co-culture assay, DLL1-induced NICD1 level; assay type: cell-based, human
Description: as §2, §1

NICD1 [5] = assay: NICD1 formation in HCT-15; assay type: cell-based, human; conditions: peptides 100 μM
Description: as §5, §1

NICD2 = assay: Co-culture assay, NICD2 formation (Jag1-Notch2); assay type: cell-based, human
Description: as §2, §1

DLL4-induced NICD1 = assay: Co-culture assay, DLL4-induced NICD1 level; assay type: cell-based, human
Description: as §2, §1

inhibition of DLL1-Notch1 signalling (DLL1-Notch1 signalling): did not interfere
IC50 (S1-M1-80 cells [2]): 4.9 ± 0.2 µM
IC50 (S1): > 30 µM
IC50 at 3 days (in vitro): > 100 µM
inhibition of DLL4-Notch1 signalling (DLL4-Notch1 signalling): did not interfere
inhibition of Jag1-induced Notch signaling compared with N1 (Jag1-Notch1 signalling; peptides 25 μM): biggest improvement
SMILES: CC[C@H](C)[C@H](NC(=O)[C@H](CCC(N)=O)NC(=O)[C@H](CC(=O)O)NC(=O)[C@H](CC(C)C)NC(=O)[C@@H](N)CS)C(=O)NCC(=O)N[C@@H](CCC(=O)O)C(=O)N[C@@H](Cc1ccccc1)C(=O)N[C@@H](CCC(N)=O)C(=O)N[C@@H](CS)C(=O)N[C@H](C(=O)N[C@@H](CS)C(=O)N[C@@H](CCC(=O)O)C(=O)O)[C@@H](C)CC [Peptide N102M479E, CLDQIGEFQCICE] (H-CLDQIGEFQCICE-OH; N-terminus and C-terminus assumed)
NICD1 formation in S1-M1-80 cells (NICD1 [1]): totally suppress NICD1 formation
Jag1-induced NICD1 level (Jag1-induced NICD1): significantly decreased expression level of NICD1
IC50 (HEK-293T-Jagged-1 cells): > 100 µM
inhibition of Jag1-induced Notch1 signalling, dose response (Jag1-Notch1 signalling): inhibited Jag1-induced Notch1 signaling in dose dependent manner
colony formation of S1-M1-80, dose response (S1-M1-80 cells [3]): effectively reduced colony formation
colony formation of S1-M1-80 (S1-M1-80 cells [3]; 1 μM): reduced by half
more potent than DAPT (colony formation) (S1-M1-80 cells [3]; 1 μM): 14%
colony formation of S1-M1-80 (S1-M1-80 cells [3]; 5 μM): almost eliminated the formation of all colonies
colony formation of S1-M1-80 (S1-M1-80 cells [3]; 10 μM): completely eliminated the formation of colonies
colony formation, combination with TPT (S1-M1-80 cells [3]): 581 colonies/well
colony formation (S1-M1-80 cells [3]; S1-M1-80, single agent 1 μM): 925 colonies/well
colony formation (S1-M1-80 cells [3]; S1-M1-80, single agent 10 μM): 84 colonies/well
effect with topotecan on colony formation of S1-M1-80 (S1-M1-80 cells [3]; TPT plus N102M479E): synergistic
increase of potency over TPT-DAPT combination (colony formation) (S1-M1-80 cells [3]; combined with 1 μM of TPT): 19%

inhibition of DLL1-Notch1 signalling (DLL1-Notch1 signalling): can inhibit all signaling
inhibition of DLL4-Notch1 signalling (DLL4-Notch1 signalling): can inhibit all signaling
inhibition of Jag1-induced Notch1 signalling, dose response (Jag1-Notch1 signalling): can inhibit all signaling
SMILES: C[C@H](NC(=O)Cc1cc(F)cc(F)c1)C(=O)N[C@H](C(=O)OC(C)(C)C)c1ccccc1 [DAPT, N—[N-(3,5-Difluorophenacetyl)-L-alanyl]-S-phenylglycine t-butyl ester, reference compound]
Jag1-induced NICD1 level (Jag1-induced NICD1): equally effective in inhibiting both NICD1 and NICD2
IC50 (S1-M1-80 cells [2]; S1-M1-80 cells, 3 days, MTS, read-out: IC50 (μM) s1-m1-80): 17.1 ± 0.4 µM
IC50 (S1; S1 cells, 3 days, MTS, read-out: IC50 (μM) S1): > 100 µM
NICD1 formation in HCT-116 (NICD1 [4]): almost complete elimination of NICD1
DLL1-induced NICD1 level (DLL1-induced NICD1): can inhibit both
NICD1 formation in HCT-15 (NICD1 [5]): almost complete elimination of NICD1
NICD2 formation (NICD2): equally effective in inhibiting both NICD1 and NICD2
colony formation, combination with TPT (S1-M1-80 cells [3]): 1074 colonies/well
colony formation (S1-M1-80 cells [3]; S1-M1-80, single agent 10 μM): 717 colonies/well
DLL4-induced NICD1 level (DLL4-induced NICD1): can inhibit both
